According to paper PMC5458547, “Discovery of first-in-class reversible dual small molecule inhibitors against G9a and DNMTs in hematological malignancies” (Nature Communications, 2017):

Experiments:
PRMT4 = biological target: T1, PRMT4 (Homo sapiens, UniProt Q86X55); assay: Epigenetics selectivity panel (BPS Bioscience); type: biochemical
T1 construct: purchased DiscoverX KINOMEscan (kinases); BPS Bioscience (epigenetic targets)

CREBBP = biological target: T2, CREBBP (Homo sapiens, UniProt Q92793); assay: Epigenetics selectivity panel (BPS Bioscience); type: binding
T2 construct: purchased DiscoverX KINOMEscan (kinases); BPS Bioscience (epigenetic targets)
T2 sequence (Q92793 whole entry): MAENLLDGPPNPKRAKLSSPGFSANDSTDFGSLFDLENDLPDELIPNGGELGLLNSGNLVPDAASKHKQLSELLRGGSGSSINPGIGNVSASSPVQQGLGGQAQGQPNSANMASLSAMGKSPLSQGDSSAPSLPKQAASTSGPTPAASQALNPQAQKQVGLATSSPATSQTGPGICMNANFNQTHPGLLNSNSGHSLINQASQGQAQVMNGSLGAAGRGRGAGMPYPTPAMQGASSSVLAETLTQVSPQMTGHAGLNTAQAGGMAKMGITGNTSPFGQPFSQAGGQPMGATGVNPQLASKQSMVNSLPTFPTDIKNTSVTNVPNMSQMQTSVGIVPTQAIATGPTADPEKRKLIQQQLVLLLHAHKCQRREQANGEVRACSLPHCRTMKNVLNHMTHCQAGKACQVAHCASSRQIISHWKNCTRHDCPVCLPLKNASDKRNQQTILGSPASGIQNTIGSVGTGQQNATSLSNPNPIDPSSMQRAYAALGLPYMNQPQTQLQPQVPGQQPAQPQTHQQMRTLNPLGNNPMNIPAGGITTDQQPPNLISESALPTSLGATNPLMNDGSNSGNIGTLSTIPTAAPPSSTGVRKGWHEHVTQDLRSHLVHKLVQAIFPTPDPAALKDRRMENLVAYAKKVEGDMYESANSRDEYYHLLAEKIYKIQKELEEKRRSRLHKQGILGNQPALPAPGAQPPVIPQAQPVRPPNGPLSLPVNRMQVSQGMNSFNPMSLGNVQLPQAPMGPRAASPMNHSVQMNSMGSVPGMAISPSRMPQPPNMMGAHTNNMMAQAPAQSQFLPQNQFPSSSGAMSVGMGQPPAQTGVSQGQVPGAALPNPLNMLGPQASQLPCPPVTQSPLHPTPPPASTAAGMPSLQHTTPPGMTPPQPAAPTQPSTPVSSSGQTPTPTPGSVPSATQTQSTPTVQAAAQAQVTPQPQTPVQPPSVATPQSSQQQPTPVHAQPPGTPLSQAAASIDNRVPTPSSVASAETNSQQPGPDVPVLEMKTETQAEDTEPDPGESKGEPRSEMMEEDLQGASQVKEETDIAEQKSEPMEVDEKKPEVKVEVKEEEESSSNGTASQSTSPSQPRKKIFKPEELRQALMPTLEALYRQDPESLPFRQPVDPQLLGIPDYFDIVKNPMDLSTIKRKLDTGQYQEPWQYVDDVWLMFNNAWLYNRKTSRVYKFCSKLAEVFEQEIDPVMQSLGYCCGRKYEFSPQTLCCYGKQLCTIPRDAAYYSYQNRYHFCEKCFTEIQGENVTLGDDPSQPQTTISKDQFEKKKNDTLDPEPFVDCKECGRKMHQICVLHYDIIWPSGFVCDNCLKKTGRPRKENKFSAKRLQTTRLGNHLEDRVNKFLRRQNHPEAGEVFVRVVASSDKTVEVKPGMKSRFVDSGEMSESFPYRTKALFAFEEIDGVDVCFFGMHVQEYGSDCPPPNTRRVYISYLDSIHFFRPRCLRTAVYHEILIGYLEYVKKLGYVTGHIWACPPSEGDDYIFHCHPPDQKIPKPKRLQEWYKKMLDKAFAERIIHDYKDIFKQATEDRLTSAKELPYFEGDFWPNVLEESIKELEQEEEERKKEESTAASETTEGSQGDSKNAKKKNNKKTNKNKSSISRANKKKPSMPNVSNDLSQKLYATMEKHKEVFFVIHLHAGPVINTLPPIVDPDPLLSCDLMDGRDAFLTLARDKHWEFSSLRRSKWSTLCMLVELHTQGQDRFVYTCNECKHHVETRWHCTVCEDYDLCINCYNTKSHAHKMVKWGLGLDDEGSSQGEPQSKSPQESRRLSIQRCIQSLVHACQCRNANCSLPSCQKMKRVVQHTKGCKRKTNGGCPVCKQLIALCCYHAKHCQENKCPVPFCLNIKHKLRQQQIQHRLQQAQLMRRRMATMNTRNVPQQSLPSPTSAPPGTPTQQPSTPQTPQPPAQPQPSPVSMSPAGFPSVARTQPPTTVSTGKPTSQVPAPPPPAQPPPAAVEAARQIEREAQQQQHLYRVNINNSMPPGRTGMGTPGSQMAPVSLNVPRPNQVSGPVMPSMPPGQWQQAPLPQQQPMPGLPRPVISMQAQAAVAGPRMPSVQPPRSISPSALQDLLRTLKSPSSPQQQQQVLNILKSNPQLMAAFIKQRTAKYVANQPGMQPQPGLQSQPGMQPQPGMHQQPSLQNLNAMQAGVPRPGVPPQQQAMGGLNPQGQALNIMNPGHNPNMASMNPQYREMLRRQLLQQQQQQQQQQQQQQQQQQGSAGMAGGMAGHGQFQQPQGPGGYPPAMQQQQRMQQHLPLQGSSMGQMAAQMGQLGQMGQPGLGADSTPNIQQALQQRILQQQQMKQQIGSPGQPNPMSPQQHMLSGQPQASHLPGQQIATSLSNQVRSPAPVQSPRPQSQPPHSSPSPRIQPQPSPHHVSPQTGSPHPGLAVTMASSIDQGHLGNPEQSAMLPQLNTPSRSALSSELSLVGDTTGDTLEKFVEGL

SETD2 = biological target: T3, SETD2 (Homo sapiens, UniProt Q9BYW2); assay: Epigenetics selectivity panel (BPS Bioscience); type: biochemical
T3 construct: purchased DiscoverX KINOMEscan (kinases); BPS Bioscience (epigenetic targets)

HELA = assay: Cell proliferation assay (MTS); type: cell-based; details: Homo sapiens, Cervical
EZH1 = biological target: T4, EZH1 (Homo sapiens, UniProt Q92800); assay: Epigenetics selectivity panel (BPS Bioscience); type: biochemical
T4 construct: purchased DiscoverX KINOMEscan (kinases); BPS Bioscience (epigenetic targets)

A549 = assay: Cell proliferation assay (MTS); type: cell-based; details: Homo sapiens, NSCLC
JMJD2E = biological target: T5, JMJD2E (Homo sapiens, UniProt B2RXH2); assay: Epigenetics selectivity panel (BPS Bioscience); type: biochemical
T5 construct: purchased DiscoverX KINOMEscan (kinases); BPS Bioscience (epigenetic targets)
T5 sequence (B2RXH2 whole entry): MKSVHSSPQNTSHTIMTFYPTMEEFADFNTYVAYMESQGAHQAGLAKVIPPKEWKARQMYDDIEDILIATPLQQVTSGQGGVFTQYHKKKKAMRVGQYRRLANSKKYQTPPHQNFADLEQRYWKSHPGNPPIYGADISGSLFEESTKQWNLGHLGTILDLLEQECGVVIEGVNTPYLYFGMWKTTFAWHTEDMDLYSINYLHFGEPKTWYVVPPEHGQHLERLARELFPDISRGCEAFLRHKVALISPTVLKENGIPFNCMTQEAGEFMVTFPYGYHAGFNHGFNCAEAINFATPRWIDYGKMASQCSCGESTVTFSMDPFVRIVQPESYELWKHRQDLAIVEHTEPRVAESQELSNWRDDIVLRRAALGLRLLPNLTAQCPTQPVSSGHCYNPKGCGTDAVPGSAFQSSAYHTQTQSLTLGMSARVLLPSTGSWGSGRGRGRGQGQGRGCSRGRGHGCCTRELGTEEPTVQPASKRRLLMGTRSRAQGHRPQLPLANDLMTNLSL

MGH-U4 = assay: Cell proliferation assay (MTS); type: cell-based; details: Homo sapiens; Bladder
PAMPA permeability = type: in vitro ADME; details: pH 7.4
H1299 = assay: Cell proliferation assay (MTS); type: cell-based; details: Homo sapiens, NCI-H1299; NSCLC
Jarid1A = biological target: T6, Jarid1A (Homo sapiens, UniProt P29375); assay: Epigenetics selectivity panel (BPS Bioscience); type: biochemical
T6 construct: purchased DiscoverX KINOMEscan (kinases); BPS Bioscience (epigenetic targets)

JMJD1A = biological target: T7, JMJD1A (Homo sapiens, UniProt Q9Y4C1); assay: Epigenetics selectivity panel (BPS Bioscience); type: biochemical
T7 construct: purchased DiscoverX KINOMEscan (kinases); BPS Bioscience (epigenetic targets)
T7 sequence (Q9Y4C1 whole entry): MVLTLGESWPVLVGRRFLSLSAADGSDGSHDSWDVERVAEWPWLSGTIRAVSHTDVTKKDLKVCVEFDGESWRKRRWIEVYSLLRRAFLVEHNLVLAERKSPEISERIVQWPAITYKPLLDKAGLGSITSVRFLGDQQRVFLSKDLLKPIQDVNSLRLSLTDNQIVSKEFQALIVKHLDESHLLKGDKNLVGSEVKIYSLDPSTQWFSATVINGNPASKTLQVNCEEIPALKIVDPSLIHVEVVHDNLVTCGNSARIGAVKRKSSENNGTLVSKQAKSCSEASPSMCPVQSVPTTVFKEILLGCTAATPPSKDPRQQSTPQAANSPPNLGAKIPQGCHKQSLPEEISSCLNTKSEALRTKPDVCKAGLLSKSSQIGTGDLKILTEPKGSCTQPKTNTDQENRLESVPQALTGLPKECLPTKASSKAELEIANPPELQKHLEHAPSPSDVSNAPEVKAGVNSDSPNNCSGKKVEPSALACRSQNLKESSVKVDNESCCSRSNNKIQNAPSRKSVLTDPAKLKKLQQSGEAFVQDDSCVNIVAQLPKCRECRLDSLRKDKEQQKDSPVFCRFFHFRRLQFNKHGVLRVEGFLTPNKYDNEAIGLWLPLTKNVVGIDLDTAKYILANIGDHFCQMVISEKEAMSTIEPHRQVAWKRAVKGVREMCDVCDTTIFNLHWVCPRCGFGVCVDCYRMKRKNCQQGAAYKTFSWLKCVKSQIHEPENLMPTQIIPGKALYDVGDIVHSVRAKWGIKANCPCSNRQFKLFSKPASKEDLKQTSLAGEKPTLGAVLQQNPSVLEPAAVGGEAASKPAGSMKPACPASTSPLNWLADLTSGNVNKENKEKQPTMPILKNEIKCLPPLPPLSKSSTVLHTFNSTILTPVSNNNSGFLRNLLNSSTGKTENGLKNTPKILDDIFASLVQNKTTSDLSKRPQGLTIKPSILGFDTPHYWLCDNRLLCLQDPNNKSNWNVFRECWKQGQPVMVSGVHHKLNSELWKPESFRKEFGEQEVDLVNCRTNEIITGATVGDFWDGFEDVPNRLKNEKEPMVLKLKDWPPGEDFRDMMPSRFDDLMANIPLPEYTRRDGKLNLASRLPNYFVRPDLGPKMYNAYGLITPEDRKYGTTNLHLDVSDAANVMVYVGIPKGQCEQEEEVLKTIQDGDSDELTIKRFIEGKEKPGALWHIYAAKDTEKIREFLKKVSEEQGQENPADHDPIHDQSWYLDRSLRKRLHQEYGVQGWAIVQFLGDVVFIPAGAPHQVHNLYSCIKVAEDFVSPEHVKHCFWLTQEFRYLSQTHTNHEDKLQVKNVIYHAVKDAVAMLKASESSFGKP

cytochrome P450 1A2 = biological target: T8, cytochrome P450 1A2 (Homo sapiens, UniProt P05177); assay: CYP inhibition in human liver microsomes; type: in vitro ADME; details: 10 µM
T8 construct: tissue BD Gentest; host or cells: human liver microsomes
T8 sequence (P05177 whole entry): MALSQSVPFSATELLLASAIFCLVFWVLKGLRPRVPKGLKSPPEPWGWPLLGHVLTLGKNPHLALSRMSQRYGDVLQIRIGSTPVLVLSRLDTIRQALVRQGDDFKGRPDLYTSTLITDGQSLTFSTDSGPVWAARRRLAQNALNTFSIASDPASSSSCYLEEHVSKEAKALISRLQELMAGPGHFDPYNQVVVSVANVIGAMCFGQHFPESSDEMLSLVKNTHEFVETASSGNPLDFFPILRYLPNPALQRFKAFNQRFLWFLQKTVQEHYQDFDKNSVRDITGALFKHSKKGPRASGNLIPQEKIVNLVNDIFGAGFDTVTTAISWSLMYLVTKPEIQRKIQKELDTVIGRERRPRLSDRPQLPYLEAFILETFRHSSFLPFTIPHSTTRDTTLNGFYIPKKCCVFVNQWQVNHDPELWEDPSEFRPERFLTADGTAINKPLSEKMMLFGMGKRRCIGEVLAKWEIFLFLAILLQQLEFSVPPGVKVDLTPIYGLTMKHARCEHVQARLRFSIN
Method: Positive control was obtained in the presence of the vehicle of the compounds. Negative control was obtained in the absence of HDAC enzyme activity. A best fit curve was fitted using GraphPad Prism 5 to derive the half maximal inhibitory concentration (IC50) from this curve. Results are the average of two […]
3A4) was evaluated in human liver microsomes at Wuxi (http://www.wuxi.com/). Test compounds (10 µM) and the corresponding substrates for each P450 isoform (20 µL) were incubated with 140 µL liver […]
reaction was terminated by adding 400 µL cold stop solution (200 ng/mL tolbutamide in ACN) and samples were centrifuged at 4000 rpm for 20 minutes. Supernatants were analyzed by LC-MS/MS (Shimadzu LC 20-AD - API 4000), using peak area ratio of analyte/internal standard. Test compounds and positive controls were tested in duplicates. The percentage of inhibition was calculated as the ratio of substrate metabolite detected in treated and non-treated wells.
This study was conducted by Equilibrium Dialysis at Wuxi (http://www.wuxi.com/). HT-Dialysis plate (Model HTD 96 b, Cat# 1006) and the dialysis membrane (molecular weight cut off 12-14 kDa, Cat# 1101) were purchased from HT Dialysis LLC (Gales Ferry, CT). Human plasma and CD-1 mouse plasma from Bioreclamation were thawed prior to experiment and the pH was adjusted at 7.4. […]
Results are the average of three replicates. […]

BRDT(BD1) = biological target: T9, BRDT(BD1) (Homo sapiens, UniProt Q58F21); assay: Epigenetics selectivity panel (BPS Bioscience); type: binding
T9 construct: purchased DiscoverX KINOMEscan (kinases); BPS Bioscience (epigenetic targets)

SMILES	inhibition at 10 µM (PRMT4) [%]	inhibition at 10 µM (CREBBP) [%]	inhibition at 10 µM (SETD2) [%]	GI50 (HELA) [nM]	inhibition at 10 µM (EZH1) [%]	GI50 (A549) [nM]	inhibition at 10 µM (JMJD2E) [%]	GI50 (MGH-U4) [nM]	PAMPA (Pe) (PAMPA permeability)	GI50 (H1299) [nM]	inhibition at 10 µM (Jarid1A) [%]	inhibition at 10 µM (JMJD1A) [%]	P450s Inhibition: 1A2 (cytochrome P450 1A2) [%]	inhibition at 10 µM (BRDT(BD1)) [%]
COc1cc2c(NC3CCN(C)CC3)cc(-c3ccc(C)o3)nc2cc1OCCCN1CCCC1 [CM-272, 6-methoxy-2-(5-methyl-2-furyl)-N-(1-methyl-4-piperidyl)-7-(3-pyrrolidin-1-ylpropoxy)quinolin-4-amine]	5	5	8	689	6	937	1	725	0.16 10-6 in nm/s	1060	2	8	< 10	8
COc1cc2c(NCC3CCN(C)CC3)cc(-c3ccc(C)o3)nc2cc1OCCCN1CCCC1 [CM-579, 6-methoxy-2-(5-methyl-2-furyl)-N-[(1-methyl-4-piperidyl)methyl]-7-(3-pyrrolidin-1-ylpropoxy)quinolin-4-amine]	6	0	0	109	17	122	8	173	0.01 10-6 in nm/s	547	27	6	< 10	0
